This is an account of results in US10934302B1, “SHP2 phosphatase inhibitors and methods of use thereof” (Relay Therapeutics, Inc., priority 2018, dated 2021).

SMILES strings stand for the structures.

The first experiment deals with KYSE520. As to the kind of experiment: Combination growth inhibition (isobologram), KYSE520. Type of experiment: cell-based. The settings on record: erlotinib (EGFR inhibitor) combined with a SHP2 inhibitor of the instant disclosure; KYSE520 cells; FIG. 1A.
Consider `C#Cc1cccc(Nc2ncnc3cc(OCCOC)c(OCCOC)cc23)c1` [erlotinib], for which the “growth inhibition (isobologram)” value is “synergistic growth inhibition”.

The target in another experiment is SHP2 (Homo sapiens (Human), UniProt Q06124). As to the kind of experiment: SHP2 allosteric inhibition assay (DiFMUP prompt fluorescence). Type of experiment: biochemical.
Sequence of SHP2 (Q06124 whole entry): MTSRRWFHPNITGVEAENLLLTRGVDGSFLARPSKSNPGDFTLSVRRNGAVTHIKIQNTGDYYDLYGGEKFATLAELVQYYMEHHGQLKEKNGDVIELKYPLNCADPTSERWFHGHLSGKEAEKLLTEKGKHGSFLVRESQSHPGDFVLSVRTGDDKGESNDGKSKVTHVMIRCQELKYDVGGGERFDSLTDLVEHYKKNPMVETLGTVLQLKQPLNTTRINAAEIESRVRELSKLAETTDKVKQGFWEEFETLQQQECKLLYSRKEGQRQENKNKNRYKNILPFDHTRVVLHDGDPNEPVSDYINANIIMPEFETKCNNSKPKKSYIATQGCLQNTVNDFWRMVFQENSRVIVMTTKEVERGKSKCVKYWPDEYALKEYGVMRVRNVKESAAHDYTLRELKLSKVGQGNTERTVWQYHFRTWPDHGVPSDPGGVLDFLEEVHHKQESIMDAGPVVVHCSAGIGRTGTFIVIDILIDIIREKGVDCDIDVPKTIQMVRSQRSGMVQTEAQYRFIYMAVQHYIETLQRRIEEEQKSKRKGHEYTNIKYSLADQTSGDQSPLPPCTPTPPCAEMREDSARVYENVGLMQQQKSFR
Settings: not given
As a reminder, the IC50 is the concentration needed to halve the response being measured. With `Cc1ccc(C(=O)CSc2cnc(N3CCC4(CC3)Cc3ccccc3[C@H]4N)cn2)cc1` [Example 267, (S)-2-((5-(1-amino-1,3-dihydrospiro[indene-2,4′-piperidin]-1′-yl)pyrazin-2-yl)thio)-1-(p-tolyl)ethan-1-one], the IC50 was below 50 nM.

The experiment is the same for the next values; noted with them: 0.25 nM SHP2 activated with 0.5 μM peptide IRS1_pY1172(dPEG8)pY1222; substrate DiFMUP.
In the case of `Cc1nc2c(N3CCCc4c3ccn(C)c4=O)n[nH]c2nc1N1CCC2(CC1)Cc1ccc(F)cc1[C@H]2N` [Example 246, 1-{6-[(3S)-3-amino-5-fluoro-1,3-dihydrospiro[indene-2,4′-piperidin]-1′-yl]-5-methyl-1H-pyrazolo[3,4-b]pyrazin-3-yl}-6-methyl-1,2,3,4,5,6-hexahydro-1,6-naphthyridin-5-one], the IC50 is above 10000 nM. Same read-out and setting: the same measure for `Cc1nc2c(N3CCCc4c3ccn(C)c4=O)n[nH]c2nc1N1CCC2(CC1)Cc1ccccc1[C@H]2N` [Example 247, 1-{6-[(3S)-3-amino-1,3-dihydrospiro[indene-2,4′-piperidin]-1′-yl]-5-methyl-1H-pyrazolo[3,4-b]pyrazin-3-yl}-6-methyl-1,2,3,4,5,6-hexahydro-1,6-naphthyridin-5-one]: 1000 to 10000 nM; for `Cc1nc(SC2CCCC2)cnc1N1CCC2(CC1)Cc1ccccc1[C@H]2N` [Example 249, (3S)-1′-[5-(cyclopentylsulfanyl)-3-methylpyrazin-2-yl]-1,3-dihydrospiro[indene-2,4′-piperidin]-3-amine]: at most 50 nM.

With `Cc1nc(N2CCC3(CC2)Cc2ccccc2[C@H]3N)cnc1SC1CCCC1` [Example 250, (3S)-1′-[5-(cyclopentylsulfanyl)-6-methylpyrazin-2-yl]-1,3-dihydrospiro[indene-2,4′-piperidin]-3-amine], the IC50 was at most 50 nM. Same read-out and setting: as for `N[C@@H]1c2ccccc2CC12CCN(c1cnc(OC3CCCC3)cn1)CC2` [Example 251, (3S)-1′-[5-(cyclopentyloxy)pyrazin-2-yl]-1,3-dihydrospiro[indene-2,4′-piperidin]-3-amine], the figure is above 10000 nM. On the same count and under the same terms, the same measure for `N[C@@H]1c2ccccc2CC12CCN(c1nn3cc(C4CCCC4)nc3s1)CC2` [Example 252, (1S)-1′-{6-cyclopentylimidazo[2,1-b][1,3,4]thiadiazol-2-yl}-1,3-dihydrospiro[indene-2,4′-piperidin]-1-amine]: at most 50 nM; for `Cc1nc2c(N3CCCC3)n[nH]c2nc1N1CCC2(CC1)Cc1ccccc1[C@H]2N` [Example 254, (1S)-1′-[5-methyl-3-(pyrrolidin-1-yl)-1H-pyrazolo[3,4-b]pyrazin-6-yl]-1,3-dihydrospiro[indene-2,4′-piperidin]-1-amine]: above 10000 nM; for `N[C@@H]1c2ccccc2CC12CCN(c1nc3[nH]nc(N4CCCCC4)c3nc1C1CC1)CC2` [Example 255, (3S)-1′-[5-cyclopropyl-3-(piperidin-1-yl)-1H-pyrazolo[3,4-b]pyrazin-6-yl]-1,3-dihydrospiro[indene-2,4′-piperidin]-3-amine]: at most 50 nM. Regarding `N[C@@H]1c2ccccc2CC12CCN(c1cnc(C(=O)c3ccccc3)cn1)CC2` [Example 256, (S)-(5-(1-amino-1,3-dihydrospiro[indene-2,4′-piperidin]-1′-yl)pyrazin-2-yl)(phenyl)methanone], the IC50 is at most 50 nM. Still for that read-out and setting: as for `Nc1nccc(Sc2ccc(N3CCC4(CC3)Cc3ccccc3[C@H]4N)c(CO)n2)c1Cl` [Example 258, {3-[(3S)-3-amino-1,3-dihydrospiro[indene-2,4′-piperidin]-1′-yl]-6-[(2-amino-3-chloropyridin-4-yl)sulfanyl]pyridin-2-yl}methanol], the figure is at most 50 nM; as for `C[C@@H](O)c1nc(Sc2ccnc(Cl)c2Cl)cnc1N1CCC2(CC1)Cc1ccccc1[C@H]2N` [Example 259, (1R)-1-{3-[(3S)-3-amino-1,3-dihydrospiro[indene-2,4′-piperidin]-1′-yl]-6-[(2,3-dichloropyridin-4-yl)sulfanyl]pyrazin-2-yl}ethan-1-ol], at most 50 nM. Compound `N[C@@H]1c2ccccc2CC12CCN(c1ncc(Sc3cccc(Cl)c3Cl)c(=O)[nH]1)CC2` [Example 261, 2-[(3S)-3-amino-1,3-dihydrospiro[indene-2,4′-piperidin]-1′-yl]-5-[(2,3-dichlorophenyl)sulfanyl]-3,4-dihydropyrimidin-4-one] had an IC50 of at most 50 nM. The compound `COc1nc(N2CCC3(CC2)Cc2ccccc2[C@H]3N)ncc1Sc1cccc(Cl)c1Cl` [Example 262, (S)-1′-(5-((2,3-dichlorophenyl)thio)-4-methoxypyrimidin-2-yl)-1,3-dihydrospiro[indene-2,4′-piperidin]-1-amine] came in with a concentration for half-maximal inhibition (IC50) of 50 to 1000 nM. The same measure, in the same setting: the same measure for `N[C@@H]1c2ccccc2CC12CCN(c1cnc(SCc3cccc(Cl)n3)cn1)CC2` [Example 263, (S)-1′-(5-(((6-chloropyridin-2-yl)methyl)thio)pyrazin-2-yl)-1,3-dihydrospiro[indene-2,4′-piperidin]-1-amine]: at most 50 nM. Still for that read-out and setting: as for `N[C@@H]1c2ccccc2CC12CCN(c1cnc(SCC3CCCC3)cn1)CC2` [Example 264, (S)-1′-(5-((cyclopentylmethyl)thio)pyrazin-2-yl)-1,3-dihydrospiro[indene-2,4′-piperidin]-1-amine], the figure is at most 50 nM; as for `N[C@@H]1c2ccccc2CC12CCN(c1cnc(SCCc3ccccc3)cn1)CC2` [Example 265, (S)-1′-(5-(phenethylthio)pyrazin-2-yl)-1,3-dihydrospiro[indene-2,4′-piperidin]-1-amine], at most 50 nM; as for `Cc1nc(N2CCC3(CC2)Oc2ccccc2[C@H]3N)c(CO)nc1-c1cccc(Cl)c1Cl` [Example 268, (R)-(3-(3-amino-3H-spiro[benzofuran-2,4′-piperidin]-1′-yl)-6-(2,3-dichlorophenyl)-5-methylpyrazin-2-yl)methanol], at most 50 nM. In turn, `Cc1nc(N2CCC3(CC2)Cc2c(F)cccc2[C@H]3N)c(CO)nc1-c1cccc(Cl)c1Cl` [Example 269, (S)-(3-(1-amino-4-fluoro-1,3-dihydrospiro[indene-2,4′-piperidin]-1′-yl)-6-(2,3-dichlorophenyl)-5-methylpyrazin-2-yl)methanol] gave an IC50 of at most 50 nM. In the case of `Cc1cc(-c2nccs2)cc(N2CCC3(CC2)Cc2ccccc2[C@H]3N)n1` [Example 270, (S)-1′-(6-methyl-4-(thiazol-2-yl)pyridin-2-yl)-1,3-dihydrospiro[indene-2,4′-piperidin]-1-amine], the IC50 was 1000 to 10000 nM. Same read-out and setting: the same measure for `Cc1cc(N2CCC3(CC2)Cc2ccccc2[C@H]3N)cc(S(C)(=O)=O)c1` [Example 271, (S)-1′-(3-methyl-5-(methylsulfonyl)phenyl)-1,3-dihydrospiro[indene-2,4′-piperidin]-1-amine]: at most 50 nM. Still for that read-out and setting: as for `N[C@@H]1c2ccccc2OC12CCN(c1cnc(SCC3CC3)cn1)CC2` [Example 273, (R)-1′-(5-((cyclopropylmethyl)thio)pyrazin-2-yl)-3H-spiro[benzofuran-2,4′-piperidin]-3-amine], the figure is at most 50 nM; as for `N[C@@H]1c2ccccc2O[C@]12C[C@H]1CC[C@@H](C2)N1c1cnc(SCC2CC2)cn1` [Example 274, (1′R,2r,3R,5'S)-8′-(5-((cyclopropylmethyl)thio)pyrazin-2-yl)-3H-8′-azaspiro[benzofuran-2,3′-bicyclo[3.2.1]octan]-3-amine], 1000 to 10000 nM. The compound `Cc1nc2c(N3CCCCC3)n[nH]c2nc1N1CCC2(CC1)Oc1cc(F)ccc1[C@H]2N` [Example 278, (3R)-6-fluoro-1′-[5-methyl-3-(piperidin-1-yl)-1H-Pyrazolo[3,4-b]pyrazin-6-yl]-3H-spiro[1-benzofuran-2,4′-piperidin]-3-amine] returned an IC50 of at most 50 nM. On the same count and under the same terms, the same measure for `N[C@@H]1c2ccccc2C[C@]12CC[C@H](c1ccc(Sc3ccnc(Cl)c3Cl)nc1)CC2` [Example 279, (1s,3'S,4R)-4-{6-[(2,3-dichloropyridin-4-yl)sulfanyl]pyridin-3-yl}-1′,3′-dihydrospiro[cyclohexane-1,2′-inden]-3′-amine]: at most 50 nM. Same read-out and setting: the same measure for `N[C@H]1c2ccccc2C[C@]12CC[C@H](c1ccc(Sc3ccnc(Cl)c3Cl)nc1)CC2` [Example 280, (1s,1′R,4S)-4-(6-((2,3-dichloropyridin-4-yl)thio)pyridin-3-yl)-1′,3′-dihydrospiro[cyclohexane-1,2′-inden]-1′-amine]: at most 50 nM; for `N[C@H]1c2ccccc2C[C@]12CC[C@@H](c1cnc(SCC3CC3)cn1)CC2` [Example 285, (1r, 4r)-4-{5-[(cyclopropylmethyl)sulfanyl]pyrazin-2-yl}-1′,3′-dihydrospiro[cyclohexane-1,2′-inden]-3′-amine]: at most 50 nM. Same read-out and setting: as for `N[C@@H]1c2ccccc2CC12CCN(C(=O)c1csc(-c3c(Cl)cccc3Cl)n1)CC2` [Example 286, (1S)-1′-[2-(2,6-dichlorophenyl)-1,3-thiazole-4-carbonyl]-1,3-dihydrospiro[indene-2,4′-piperidin]-1-amine], the figure is at most 50 nM. For `COc1cccc(-n2ccc(C(=O)N3CCC4(CC3)Cc3ccccc3[C@H]4N)n2)c1` [Example 287, (1S)-1′-[1-(3-methoxyphenyl)-1H-pyrazole-3-carbonyl]-1,3-dihydrospiro[indene-2,4′-piperidin]-1-amine], the IC50 is at most 50 nM. The same measure, in the same setting: the same measure for `COc1cccc(-n2nccc2C(=O)N2CCC3(CC2)Cc2ccccc2[C@H]3N)c1` [Example 288, (1S)-1′-[1-(3-methoxyphenyl)-1H-pyrazole-5-carbonyl]-1,3-dihydrospiro[indene-2,4′-piperidin]-1-amine]: above 10000 nM. Take `N[C@@H]1c2ccccc2CC12CCN(C(=O)c1ccccc1Oc1ccccc1)CC2` [Example 292, (3S)-1′-(2-phenoxybenzoyl)-1,3-dihydrospiro[indene-2,4′-piperidin]-3-amine]: the IC50 was above 10000 nM.

For the compound `Cc1cc(-c2cccnc2)c(C)c(N2CCC3(CC2)Cc2ccccc2[C@H]3N)n1` [Example 294, (3S)-1′-{3′,6′-dimethyl-[3,4′-bipyridin]-2′-yl}-1,3-dihydrospiro[indene-2,4′-piperidin]-3-amine], the IC50 is at most 50 nM.
